Data as given in ChEMBL document CHEMBL1155350, “Antitubercular activity of alpha,omega-diaminoalkanes, H2N(CH2)nNH2” (Bioorg Med Chem Lett, 2009).
Values after ≈ are worked out from the molar mass of the structure shown. Active and inactive are the calls of the source. The calls are words filed in the database; no cut-off is given here.

Key:
[1] = Cytotoxicity against mouse J774 macrophage assessed as cell viability at 1 ug/mL after 48 hrs by MTT assay; format: cell-based; conditions: J774 macrophage cells, read-out: Activity
[2] = Cytotoxicity against Mycobacterium bovis Bacillus Calmette-Guerin infected mouse J774 macrophage assessed as cell viability at 100 ug/mL after 48 hrs by MTT assay; format: cell-based; conditions: J774 macrophage cells infected with Mycobacterium bovis BCG, read-out: Activity
[3] = Cytotoxicity against mouse J774 macrophage assessed as cell viability at 100 ug/mL after 48 hrs by MTT assay; format: cell-based; conditions: J774 macrophage cells, read-out: Activity
[4] = Cytotoxicity against Mycobacterium bovis Bacillus Calmette-Guerin infected mouse J774 macrophage assessed as cell viability at 1 ug/mL after 48 hrs by MTT assay; format: cell-based; conditions: J774 macrophage cells infected with Mycobacterium bovis BCG, read-out: Activity
[5] = tested on: Mycobacterium tuberculosis; assay: Antimicrobial activity against Mycobacterium tuberculosis H37Rv ATCC 27294 assessed as minimum inhibitory concentration […] by micro plate Alamar blue assay; format: functional
[6] = Cytotoxicity against mouse J774 macrophage assessed as cell viability at 10 ug/mL after 48 hrs by MTT assay; format: cell-based; conditions: J774 macrophage cells, read-out: Activity
[7] = Cytotoxicity against Mycobacterium bovis Bacillus Calmette-Guerin infected mouse J774 macrophage assessed as cell viability at 10 ug/mL after 48 hrs by MTT assay; format: cell-based; conditions: J774 macrophage cells infected with Mycobacterium bovis BCG, read-out: Activity

SMILES | viability at 48 h, 1 ug/mL [1] [%] | viability at 48 h, 100 ug/mL [2] [%] | viability at 48 h, 100 ug/mL [3] [%] | viability at 48 h, 1 ug/mL [4] [%] | MIC [5] | viability at 48 h, 10 ug/mL [6] [%] | viability at 48 h, 10 ug/mL [7] [%]
NCCCN | 100 | 89 | 100 | 100 | inactive | 100 | 94
NCCCCCCCCCCN | 100 | 42 | 94 | 56 | 3.12 µg/mL (≈ 18.1 µM) | 100 | 34
NCCCCCCCCN [DIAMINOOCTANE] | 100 | 64 | 95 | 68 | inactive | 100 | 64
CC[C@@H](CO)NCCN[C@@H](CC)CO [ETHAMBUTOL] | 100 | 85 | 82 | 92 | – | 93 | 88
NCCN [ETHYLENEDIAMINE] | 100 | 29 | 100 | 35 | inactive | 100 | 23
NCCCCCN | 100 | 98 | 100 | 100 | inactive | 100 | 100
NCCCCCCCCCN | 100 | 71 | 100 | 100 | 3.12 µg/mL (≈ 19.7 µM) | 100 | 100
NCCCCCCCN | 100 | 70 | 100 | 79 | inactive | 100 | 78
NCCCCCCCCCCCN | 100 | 40 | 100 | 58 | 3.12 µg/mL (≈ 16.7 µM) | 100 | 53
NCCCCCCCCCCCCN | 100 | 38 | 100 | 56 | 2.5 µg/mL (≈ 12.5 µM) | 100 | 49
NCCCCN [PUTRESCINE] | 100 | 82 | 100 | 100 | inactive | 100 | 90
NCCCCCCN | 100 | 76 | 100 | 98 | inactive | 100 | 92
